Measured values: ChEMBL document CHEMBL4311959, “Discovery of a potent p38α/MAPK14 kinase inhibitor: Synthesis, in vitro/in vivo biological evaluation, and docking studies” (Eur J Med Chem, 2019)

Assays:
[1] = test system: THP-1; assay: Inhibition of LPS-induced TNFalpha production in human THP1 cells incubated for 1 hr followed by LPS stimulation and measured after 4 hrs by TR-FRET method; type: functional, cell-based
[2] = target: T1, Mitogen-activated protein kinase 14 (Homo sapiens, UniProt Q16539); assay: Inhibition of recombinant Nanoluc-tagged p38alpha (unknown origin) expressed in HEK293 cells incubated for 2 to 3 mins by NanoBRET assay; type: cell-based
[3] = target: T1, Mitogen-activated protein kinase 14; assay: Inhibition of human p38alpha using MBP as substrate by [gamma-33P]-ATP assay
[4] = target: Tyrosine-protein kinase Tec (Homo sapiens) (UniProt P42680); assay: Inhibition of human TEC at 10 uM using poly[Glu:Tyr] (4:1) as substrate by [gamma-33P]-ATP assay relative to control
[5] = test system: Mitogen-activated protein kinase 14 (Homo sapiens), Q16539 [T106M]; assay: Inhibition of human p38alpha T106M mutant at 10 uM using MBP as substrate by [gamma-33P]-ATP assay relative to control
[6] = target: Insulin receptor (Homo sapiens) (UniProt P06213); assay: Inhibition of human IR at 10 uM using poly[Glu:Tyr] (4:1) as substrate by [gamma-33P]-ATP assay relative to control
[7] = target: Glycogen synthase kinase-3 beta (Homo sapiens) (UniProt P49841); assay: Inhibition of human GSK3B at 10 uM using YRRAAVPPSPSLSRHSSPHQ(pS)EDEEE as substrate by [gamma-33P]-ATP assay relative to control
[8] = target: Mitogen-activated protein kinase 3 (Homo sapiens) (UniProt P27361); assay: Inhibition of human ERK1 at 10 uM using MBP as substrate by [gamma-33P]-ATP assay relative to control
[9] = target: Cyclin-dependent kinase 2/cyclin E1 (Homo sapiens) (UniProt P24864+P24941); assay: Inhibition of human CDK2/cyclin-E at 10 uM using histone H1 as substrate by [gamma-33P]-ATP assay relative to control; type: protein-complex assay
[10] = target: Mitogen-activated protein kinase 8 (Homo sapiens) (UniProt P45983); assay: Inhibition of human JNK1 at 10 uM using ATF2 as substrate by [gamma-33P]-ATP assay relative to control
[11] = target: Receptor tyrosine-protein kinase erbB-4 (Homo sapiens) (UniProt Q15303); assay: Inhibition of human ERBB4 at 10 uM using poly[Glu:Tyr] (4:1) as substrate by [gamma-33P]-ATP assay relative to control
[12] = target: Fibroblast growth factor receptor 1 (Homo sapiens) (UniProt P11362); assay: Inhibition of human FGFR1 at 10 uM using KKKSPGEYVNIEFG as substrate by [gamma-33P]-ATP assay relative to control
[13] = target: Receptor-type tyrosine-protein kinase FLT3 (Homo sapiens) (UniProt P36888); assay: Inhibition of human FLT3 at 10 uM using EAIYAAPFAKKK as substrate by [gamma-33P]-ATP assay relative to control
[14] = target: Macrophage colony-stimulating factor 1 receptor (Homo sapiens) (UniProt P07333); assay: Inhibition of human FMS at 10 uM using poly[Glu:Tyr] (4:1) as substrate by [gamma-33P]-ATP assay relative to control
[15] = target: Vascular endothelial growth factor receptor 2 (Homo sapiens) (UniProt P35968); assay: Inhibition of human KDR at 10 uM using poly[Glu:Tyr] (4:1) as substrate by [gamma-33P]-ATP assay relative to control
[16] = target: Serine/threonine-protein kinase B-raf (Homo sapiens) (UniProt P15056); assay: Inhibition of human BRAF at 10 uM using MEK1 (K97R) as substrate by [gamma-33P]-ATP assay relative to control
[17] = test system: Serine/threonine-protein kinase B-raf (Homo sapiens), P15056 [V600E]; assay: Inhibition of human BRAF V600E mutant at 10 uM using MEK1 (K97R) as substrate by [gamma-33P]-ATP assay relative to control
[18] = target: DNA-dependent protein kinase catalytic subunit (Homo sapiens) (UniProt P78527); assay: Inhibition of human DNAPK at 10 uM using EPPLSQEAFADLWKK as substrate by […]-ATP assay relative to control
[19] = target: Epidermal growth factor receptor (Homo sapiens) (UniProt P00533); assay: Inhibition of human EGFR at 10 uM using poly[Glu:Tyr] (4:1) as substrate by [gamma-33P]-ATP assay relative to control
[20] = target: Aurora kinase A (Homo sapiens) (UniProt O14965); assay: Inhibition of human Aurora A at 10 uM using [H-LRRASLG] as substrate by [gamma-33P]-ATP assay relative to control
[21] = target: Serine/threonine-protein kinase A-Raf (Homo sapiens) (UniProt P10398); assay: Inhibition of human ARAF at 10 uM using MEK1 as substrate by [gamma-33P]-ATP assay relative to control
[22] = target: RAC-alpha serine/threonine-protein kinase (Homo sapiens) (UniProt P31749); assay: Inhibition of human AKT1 at 10 uM using KGSGSGRPRTSSFAEG as substrate by [gamma-33P]-ATP assay relative to control
[23] = Stability in human plasma assessed as remaining compound at 10 uM incubated for 30 mins by LC-MS analysis; type: ADME, cell-free; settings: read-out: Stability
[24] = Stability in rat plasma assessed as remaining compound at 10 uM incubated for 30 mins by LC-MS analysis; type: ADME, cell-free; settings: read-out: Stability
[25] = Stability in rat plasma assessed as remaining compound at 10 uM incubated for 120 mins by LC-MS analysis; type: ADME, cell-free; settings: read-out: Stability
[26] = AUClast in Sprague-Dawley rat at 10 mg/kg, iv measured for each 30 mins by LC-MS/MS analysis; type: ADME, organism-based; parameters: dose 10 mg/kg, route intravenous, time 0 - last; settings: in vivo
[27] = AUCinfinity in Sprague-Dawley rat at 10 mg/kg, iv measured for each 30 mins by LC-MS/MS analysis; type: ADME, organism-based; parameters: dose 10 mg/kg, time infinity, route intravenous; settings: in vivo
[28] = Clearance in Sprague-Dawley rat at 10 mg/kg, iv measured for each 30 mins by LC-MS/MS analysis; type: ADME, organism-based; settings: in vivo
[29] = Half life in Sprague-Dawley rat at 10 mg/kg, iv measured for each 30 mins by LC-MS/MS analysis; type: ADME, organism-based; settings: in vivo
[30] = Tmax in Sprague-Dawley rat at 10 mg/kg, po measured for each 30 mins by LC-MS/MS analysis; type: ADME, organism-based; settings: in vivo
[31] = Cmax in Sprague-Dawley rat at 10 mg/kg, po measured for each 30 mins by LC-MS/MS analysis; type: ADME, organism-based; parameters: dose 10 mg/kg, route oral; settings: in vivo
[32] = AUClast in Sprague-Dawley rat at 10 mg/kg, po measured for each 30 mins by LC-MS/MS analysis; type: ADME, organism-based; parameters: dose 10 mg/kg, route oral, time 0 - last; settings: in vivo
[33] = AUCinfinity in Sprague-Dawley rat at 10 mg/kg, po measured for each 30 mins by LC-MS/MS analysis; type: ADME, organism-based; parameters: dose 10 mg/kg, time infinity, route oral; settings: in vivo
[34] = test system: Rattus norvegicus; assay: Antiinflammatory activity in Sprague-Dawley rat assessed as inhibition of carrageenan-induced paw edema at 50 mg/kg, ip administered 1 hr before carrageenan stimulation and measured after 3 hrs relative to control; type: functional

T1 sequence (Q16539 whole entry): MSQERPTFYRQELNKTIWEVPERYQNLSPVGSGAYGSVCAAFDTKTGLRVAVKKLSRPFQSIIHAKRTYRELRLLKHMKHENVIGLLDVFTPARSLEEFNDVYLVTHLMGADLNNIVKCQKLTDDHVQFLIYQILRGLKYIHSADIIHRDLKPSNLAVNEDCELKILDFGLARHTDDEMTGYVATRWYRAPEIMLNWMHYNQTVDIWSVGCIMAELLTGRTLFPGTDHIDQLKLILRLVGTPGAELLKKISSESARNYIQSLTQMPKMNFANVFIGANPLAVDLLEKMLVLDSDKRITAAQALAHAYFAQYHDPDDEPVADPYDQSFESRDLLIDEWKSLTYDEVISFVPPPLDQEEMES
Chain of Vascular endothelial growth factor receptor 2 (Homo sapiens) (P35968 whole entry): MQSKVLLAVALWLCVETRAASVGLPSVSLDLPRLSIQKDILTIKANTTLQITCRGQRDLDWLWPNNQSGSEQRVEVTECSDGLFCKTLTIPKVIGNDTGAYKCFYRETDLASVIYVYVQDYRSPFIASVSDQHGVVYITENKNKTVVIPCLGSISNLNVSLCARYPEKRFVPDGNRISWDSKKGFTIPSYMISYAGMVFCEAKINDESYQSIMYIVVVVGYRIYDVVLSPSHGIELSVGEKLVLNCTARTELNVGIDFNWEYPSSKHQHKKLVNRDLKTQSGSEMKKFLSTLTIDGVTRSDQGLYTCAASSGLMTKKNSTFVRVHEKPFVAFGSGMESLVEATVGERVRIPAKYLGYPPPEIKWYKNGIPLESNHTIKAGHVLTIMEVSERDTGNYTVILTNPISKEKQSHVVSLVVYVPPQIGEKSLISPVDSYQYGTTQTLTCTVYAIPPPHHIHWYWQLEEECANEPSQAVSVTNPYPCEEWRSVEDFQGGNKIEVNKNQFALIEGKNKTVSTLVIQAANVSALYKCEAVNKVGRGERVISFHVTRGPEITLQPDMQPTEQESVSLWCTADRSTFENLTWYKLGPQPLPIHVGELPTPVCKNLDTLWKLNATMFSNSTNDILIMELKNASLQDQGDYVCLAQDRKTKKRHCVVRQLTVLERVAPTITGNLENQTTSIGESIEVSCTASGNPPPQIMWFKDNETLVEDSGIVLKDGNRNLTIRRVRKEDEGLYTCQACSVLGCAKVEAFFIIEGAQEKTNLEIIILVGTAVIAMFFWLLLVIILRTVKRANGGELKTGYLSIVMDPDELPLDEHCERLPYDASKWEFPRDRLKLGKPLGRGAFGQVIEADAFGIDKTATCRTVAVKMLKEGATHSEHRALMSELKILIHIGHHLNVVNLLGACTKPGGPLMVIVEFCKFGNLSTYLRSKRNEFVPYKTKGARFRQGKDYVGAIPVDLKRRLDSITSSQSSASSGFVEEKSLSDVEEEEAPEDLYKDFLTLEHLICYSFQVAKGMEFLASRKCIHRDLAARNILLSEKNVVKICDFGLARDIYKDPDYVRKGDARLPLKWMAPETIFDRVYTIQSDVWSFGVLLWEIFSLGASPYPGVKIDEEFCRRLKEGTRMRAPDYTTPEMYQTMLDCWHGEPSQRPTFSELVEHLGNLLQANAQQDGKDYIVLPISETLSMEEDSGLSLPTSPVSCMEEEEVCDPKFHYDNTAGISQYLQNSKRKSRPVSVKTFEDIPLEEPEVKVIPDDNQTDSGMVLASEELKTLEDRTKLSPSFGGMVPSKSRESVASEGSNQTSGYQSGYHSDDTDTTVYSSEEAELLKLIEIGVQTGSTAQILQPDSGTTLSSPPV
Chain of Mitogen-activated protein kinase 3 (Homo sapiens) (P27361 whole entry): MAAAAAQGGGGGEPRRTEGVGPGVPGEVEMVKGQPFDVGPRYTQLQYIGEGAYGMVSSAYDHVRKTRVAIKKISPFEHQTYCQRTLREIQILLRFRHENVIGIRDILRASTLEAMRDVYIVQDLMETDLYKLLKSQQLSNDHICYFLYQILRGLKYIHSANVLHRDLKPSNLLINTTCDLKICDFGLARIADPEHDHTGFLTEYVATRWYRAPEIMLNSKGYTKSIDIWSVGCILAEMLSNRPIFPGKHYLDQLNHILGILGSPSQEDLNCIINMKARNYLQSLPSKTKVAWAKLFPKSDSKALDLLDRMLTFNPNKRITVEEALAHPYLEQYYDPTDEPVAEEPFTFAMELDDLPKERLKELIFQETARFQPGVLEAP
Chain of Serine/threonine-protein kinase B-raf (Homo sapiens), P15056 [V600E] (P15056 whole entry V600E): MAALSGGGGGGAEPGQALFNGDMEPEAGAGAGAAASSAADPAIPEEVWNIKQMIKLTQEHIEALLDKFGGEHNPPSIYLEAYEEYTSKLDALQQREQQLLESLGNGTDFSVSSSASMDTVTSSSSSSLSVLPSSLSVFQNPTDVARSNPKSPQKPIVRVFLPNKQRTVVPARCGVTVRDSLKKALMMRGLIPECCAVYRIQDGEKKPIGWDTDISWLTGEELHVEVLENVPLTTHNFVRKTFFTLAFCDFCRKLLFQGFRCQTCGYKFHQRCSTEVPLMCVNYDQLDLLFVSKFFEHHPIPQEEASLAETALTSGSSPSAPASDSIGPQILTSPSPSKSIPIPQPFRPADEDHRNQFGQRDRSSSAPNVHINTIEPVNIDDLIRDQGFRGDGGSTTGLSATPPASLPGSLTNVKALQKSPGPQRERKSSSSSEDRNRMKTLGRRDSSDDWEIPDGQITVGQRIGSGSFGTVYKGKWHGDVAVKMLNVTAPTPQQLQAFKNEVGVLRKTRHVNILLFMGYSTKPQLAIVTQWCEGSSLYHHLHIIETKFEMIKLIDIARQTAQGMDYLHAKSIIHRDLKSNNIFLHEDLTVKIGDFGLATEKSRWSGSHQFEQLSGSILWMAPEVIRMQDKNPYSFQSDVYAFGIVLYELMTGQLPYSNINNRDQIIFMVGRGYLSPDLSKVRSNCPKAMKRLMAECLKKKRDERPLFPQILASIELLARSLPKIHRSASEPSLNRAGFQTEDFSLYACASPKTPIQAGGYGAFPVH
Chain of Receptor tyrosine-protein kinase erbB-4 (Homo sapiens) (Q15303 whole entry): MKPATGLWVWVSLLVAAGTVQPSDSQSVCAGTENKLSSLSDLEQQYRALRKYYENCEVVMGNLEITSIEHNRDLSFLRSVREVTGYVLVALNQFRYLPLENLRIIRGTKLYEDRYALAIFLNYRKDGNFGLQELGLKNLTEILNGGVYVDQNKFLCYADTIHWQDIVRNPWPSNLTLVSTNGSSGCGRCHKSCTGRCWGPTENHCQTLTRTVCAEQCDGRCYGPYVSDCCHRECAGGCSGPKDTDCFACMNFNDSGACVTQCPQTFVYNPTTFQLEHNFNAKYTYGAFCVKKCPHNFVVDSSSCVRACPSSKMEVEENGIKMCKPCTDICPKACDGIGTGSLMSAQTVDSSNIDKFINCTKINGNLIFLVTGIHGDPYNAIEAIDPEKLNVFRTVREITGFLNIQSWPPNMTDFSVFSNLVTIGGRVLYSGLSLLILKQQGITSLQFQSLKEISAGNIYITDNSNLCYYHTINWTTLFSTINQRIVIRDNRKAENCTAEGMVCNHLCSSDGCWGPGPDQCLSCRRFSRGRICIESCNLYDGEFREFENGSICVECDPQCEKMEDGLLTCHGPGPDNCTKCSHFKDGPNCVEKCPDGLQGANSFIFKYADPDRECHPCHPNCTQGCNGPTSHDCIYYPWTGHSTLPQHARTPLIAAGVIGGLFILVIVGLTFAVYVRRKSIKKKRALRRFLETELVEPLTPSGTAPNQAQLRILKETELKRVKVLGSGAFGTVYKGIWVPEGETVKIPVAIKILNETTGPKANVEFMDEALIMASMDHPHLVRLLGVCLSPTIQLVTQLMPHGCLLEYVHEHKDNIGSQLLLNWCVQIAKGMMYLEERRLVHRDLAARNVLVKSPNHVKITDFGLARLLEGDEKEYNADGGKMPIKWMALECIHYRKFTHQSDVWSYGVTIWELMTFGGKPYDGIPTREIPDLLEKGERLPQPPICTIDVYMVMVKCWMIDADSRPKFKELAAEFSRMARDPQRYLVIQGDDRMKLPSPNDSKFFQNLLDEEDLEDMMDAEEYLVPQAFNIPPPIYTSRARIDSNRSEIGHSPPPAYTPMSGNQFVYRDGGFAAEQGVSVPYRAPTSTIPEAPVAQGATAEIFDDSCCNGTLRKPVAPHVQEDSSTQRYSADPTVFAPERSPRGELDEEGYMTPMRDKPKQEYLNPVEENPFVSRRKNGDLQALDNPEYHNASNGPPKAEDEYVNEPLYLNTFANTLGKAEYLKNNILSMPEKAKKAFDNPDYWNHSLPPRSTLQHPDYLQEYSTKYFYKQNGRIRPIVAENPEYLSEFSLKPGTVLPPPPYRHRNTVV
Chain of Glycogen synthase kinase-3 beta (Homo sapiens) (P49841 whole entry, looked up): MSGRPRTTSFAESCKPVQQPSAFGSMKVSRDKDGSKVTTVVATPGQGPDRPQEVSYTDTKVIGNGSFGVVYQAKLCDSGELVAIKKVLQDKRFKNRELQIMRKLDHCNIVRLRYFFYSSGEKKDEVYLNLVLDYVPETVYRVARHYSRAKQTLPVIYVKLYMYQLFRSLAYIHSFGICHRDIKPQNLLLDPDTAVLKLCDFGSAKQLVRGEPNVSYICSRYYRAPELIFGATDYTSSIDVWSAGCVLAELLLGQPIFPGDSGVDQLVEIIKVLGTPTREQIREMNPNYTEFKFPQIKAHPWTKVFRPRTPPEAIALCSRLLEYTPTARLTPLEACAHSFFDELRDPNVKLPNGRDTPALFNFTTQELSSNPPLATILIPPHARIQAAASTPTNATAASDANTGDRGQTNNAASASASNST
Chain of Mitogen-activated protein kinase 8 (Homo sapiens) (P45983 whole entry): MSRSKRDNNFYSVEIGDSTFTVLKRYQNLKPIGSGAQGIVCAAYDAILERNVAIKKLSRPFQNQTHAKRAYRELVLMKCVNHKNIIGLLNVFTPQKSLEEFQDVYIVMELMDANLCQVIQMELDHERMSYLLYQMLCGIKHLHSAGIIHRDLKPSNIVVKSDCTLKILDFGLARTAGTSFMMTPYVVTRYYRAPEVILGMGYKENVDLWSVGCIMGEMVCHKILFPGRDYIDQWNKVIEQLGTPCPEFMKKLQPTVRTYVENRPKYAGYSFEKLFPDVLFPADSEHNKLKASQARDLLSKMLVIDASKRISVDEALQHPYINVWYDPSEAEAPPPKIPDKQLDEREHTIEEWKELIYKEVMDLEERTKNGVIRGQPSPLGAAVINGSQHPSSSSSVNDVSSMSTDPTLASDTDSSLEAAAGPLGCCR
Chain of Serine/threonine-protein kinase B-raf (Homo sapiens) (P15056 whole entry): as the sequence (P15056 whole entry V600E) above, with E600V counted along it

Structure (SMILES): COc1ccc(-c2nn(-c3cccc(NC(=O)c4cccc(C(F)(F)F)c4)c3)cc2-c2ccncc2)cc1Cl
- IC50 [1]: 58 nM
- EC50 [2]: 520 nM
- IC50 [3]: 22 nM
- inhibition [4]: -3.79%
- inhibition [5]: -4.1%
- inhibition [6]: -0.36%
- inhibition [7]: -6.34%
- inhibition [8]: -1.3%
- inhibition [9]: 2.43%
- inhibition [10]: 28.2%
- inhibition [11]: 26.9%
- inhibition [12]: 24.4%
- inhibition [13]: -5.65%
- inhibition [14]: 19%
- inhibition [15]: 13.2%
- inhibition [16]: 54.4%
- inhibition [17]: 90.8%
- inhibition [18]: -1.83%
- inhibition [19]: 24.5%
- inhibition [20]: 3.1%
- inhibition [21]: 64.2%
- inhibition [22]: 7.06%
- remaining at 0.5 h, 10 µM [23]: 100%
- remaining at 0.5 h, 10 µM [24]: 100%
- remaining at 2 h, 10 µM [25]: 100%
- AUC(0-t) at 0.5 h [26]: 1450 ng·h/mL
- AUC(0-inf) [27]: 1460 ng·h/mL
- clearance [28]: 90 mL/min/kg
- half-life [29]: 6.4 h
- Tmax [30]: 1.2 h
- Cmax [31]: 33.2 ng/mL
- AUC(0-t) at 0.5 h [32]: 164 ng·h/mL
- AUC(0-inf) [33]: 169 ng·h/mL
- inhibition in vivo at 50 mg/kg [34]: 66.5%
